Reference: patent publication US11014934B2, “Antiseptic drug” (AO “TATKHIMFARMPREPARATY”, priority 2017, dated 2021)

How the values were obtained:
Type in all cases: cell-based
[1] = system: Rh. Oryzae; assay: Sensitivity of microscopic fungi in solution (colonies after exposure); details: exposure 1 min, 0.1% solution
Protocol: For the preparation of inoculum, were respectively used pure (2-5) days cultures of yeast and mycelial fungi, grown on Saburo's dense nutrient broth. Inoculum for plating was prepared in different ways, depending on the type of fungi. Thus, yeast crops (C. albicans) were prepared by washing the culture from an agar stroke. Cultures of mycelial fungi (Rh. oryzae, Asp. fumigatus) were pre-degraded in a pounder. A suspension of microorganisms was prepared in a sterile isotonic sodium chloride solution, bringing the inoculum density to 5 UNITS (GISK [State Research Institute of Standardization and Control] named after L. A. Tarasevich) or according to the McFarland standard 1 UNIT with a concentration of at least 1×10^6 CFU/ml, considering that the size of the fungal elements is approximately 10 times the size of bacteria (this provided the possibility of creating a mixture of biocide with suspension, the concentration of microorganisms of the order of 1×10^5 CFU/ml).
Solutions of compound I, miramistin, and benzalkonium chloride in working concentrations (0.1%, 0.2%, 0.3%) were poured into sterile 0.9 ml tubes. 0.1 ml of microbial suspension was added to test tubes with disinfectant solutions and mixed by shaking for several seconds. The exposition lasted for 1, 5, and 15 minutes. After required temporary exposure for action of the disinfectant, 0.5 ml of the neutralizer solution was added and mixed by shaking.
Then, 0.1 ml of the mixture was inoculated on a dense nutrient medium and the plates with inoculate were placed in a thermostat with a temperature of 27° C. for (2-4) days for yeast and (5-7) days for mycelial fungi, respectively.
After the time required for the cultivation of microorganisms of this species, the results were counted according to the number of colonies grown on the Petri dish. In the absence of growth, the time for culturing microorganisms was increased by a factor of 2. The grown colonies were subjected to microscopy.
The tested substances were studied on clinical and archival strains of yeast and mycelial fungi. As comparison drugs, drugs commonly used in clinical practice were used: miramistin and benzalconium chloride. After the required exposure time for action of the disinfectant, a series of 0.1 ml mixture was aseptically plated on the surface of a dense nutrient medium in Petri dishes. After the time of cultivation of microorganisms, the results were counted according to the number of colonies grown on the Petri dish.

[2] = system: Staphylococcus aureus ATCC 209p; assay: Disinfectant activity in contaminated metal surface test; details: for Inhibition rate (Mean ± SD) of Staphylococcus aureus ATCC 209p growth: 0.1% solution; for Inhibition rate (M ± SD) Staphylococcus aureus ATCC 209p: 0.2% solution; for time after application to effective inhibition of bacterial growth (99.99%): 0.1% solutions
Protocol: (§1) The preparation of the bacterial suspension was carried out similarly to the procedure for determining the disinfecting activity of compound I in suspension (see example 7). To simulate protein contamination of the metal surface, a BSA solution was added to the bacterial suspension to a final concentration of 0.4%. The surface of the metal table was drawn into squares, the number of which depended on the number of strains studied. The test surface should be clean, intact, sterile. To do this, the table was cleaned with alcohol, and then with sterile water. A microbial suspension in a volume of 0.125 ml was applied to a surface area of 5×5 cm and distributed with a sterile spatula over the entire square area. After the microbial suspension was dried, a 0.5 ml solution of compound I (miramistin and benzalkonium chloride being a control) was uniformly applied to the surface at a working concentration of 0.1 and 0.2% and distributed over the square surface with a sterile spatula, and then kept for 1, 5, and 15 minutes.
(§2) After the end of exposure, the contaminated surface was thoroughly wiped with a sterile gauze cloth (size 5×5 cm) soaked in 1 ml of a neutralizer solution and the cloth was immersed in 10 ml of sterile physiological saline in a flask, which was shaken for 10 minutes.
(§3) Plating was carried out as in example 7, in addition to the controls were carried out: • control of the sterility of the surface (before applying the microbial suspension, a metal table was washed off with a sterile swab, followed by plating on a nutrient medium); • control of the vitality of the microorganism (after applying microbial suspension on the metal table, it was washed off with a sterile swab with subsequent plating on the nutrient medium).
(§4) The contamination density of 1 cm^2 of the surface and the percentage of disinfection were calculated, taking the number of colonies removed from control surfaces as 100%. The criterion for the effectiveness of surface disinfection is not less than 99.99% of the death of test microorganisms, the disinfection time is not more than 120 minutes.

[3] = system: Escherichia coli CDC F-50; assay: as above; details: for time after application to effective inhibition of bacterial growth: Escherichia coli CDC F-50, 0.1% solutions
Protocol: as §1, §2, §3, §4

[4] = Staphylococcus aureus ATCC 209p
[5] = 0.1% solution, exposure 1 min, +BSA
[6] = 0.1% solution, exposure 1 min, −BSA
[7] = 0.1% solution, exposure 5 min, +BSA
[8] = 0.1% solution, exposure 5 min, −BSA
[9] = 0.1% solution, exposure 15 min, +BSA
[10] = 0.1% solution, exposure 15 min, −BSA
[11] = 0.2% solution, exposure 1 min, +BSA
[12] = 0.2% solution, exposure 1 min, −BSA
[13] = 0.2% solution, exposure 5 min, +BSA
[14] = 0.2% solution, exposure 5 min, −BSA
[15] = 0.2% solution, exposure 15 min, +BSA
[16] = 0.2% solution, exposure 15 min, −BSA

Compound: CCCCCCCCCCCC[N+](C)(C)Cc1cnc(C[N+](C)(C)CCCCCCCCCCCC)c2c1COC(CC)O2 (centres unmarked) [Compound I, 5,8-(Bis(methylene (N, N-dimethyl-N-dodecylammonium))-2-ethyl-4H-[1,3]dioxino [4,5-c]pyridiniumdichloride]
- Number of colonies grown in a Petri dish [1]: 1
- Inhibition rate (Mean ± SD) of Staphylococcus aureus ATCC 209p growth ([2]; exposure 1 min, +BSA): 99.98 ± 0.00%
- Inhibition rate (Mean ± SD) of Staphylococcus aureus ATCC 209p growth ([2]; exposure 1 min, −BSA): 99.99%
- Inhibition rate (Mean ± SD) of Staphylococcus aureus ATCC 209p growth ([2]; exposure 5 min, +BSA): 99.99%
- Inhibition rate (Mean ± SD) of Staphylococcus aureus ATCC 209p growth ([2]; exposure 5 min, −BSA): 99.99%
- Inhibition rate (Mean ± SD) of Staphylococcus aureus ATCC 209p growth ([2]; exposure 15 min, +BSA): 99.99%
- Inhibition rate (Mean ± SD) of Staphylococcus aureus ATCC 209p growth ([2]; exposure 15 min, −BSA): 99.99%
- Inhibition rate (M ± SD) Staphylococcus aureus ATCC 209p ([2]; exposure 1 min, +BSA): 99.99%
- Inhibition rate (M ± SD) Staphylococcus aureus ATCC 209p ([2]; exposure 1 min, −BSA): 99.99%
- Inhibition rate (M ± SD) Staphylococcus aureus ATCC 209p ([2]; exposure 5 min, +BSA): 99.99%
- Inhibition rate (M ± SD) Staphylococcus aureus ATCC 209p ([2]; exposure 5 min, −BSA): 99.99%
- Inhibition rate (M ± SD) Staphylococcus aureus ATCC 209p ([2]; exposure 15 min, +BSA): 99.99%
- Inhibition rate (M ± SD) Staphylococcus aureus ATCC 209p ([2]; exposure 15 min, −BSA): 99.99%
- time after application to effective inhibition of bacterial growth (99.99%) [2, 4]: 5 min
- time to effective inhibition of bacterial growth ([2]; Staphylococcus aureus ATCC 209p, concentration 0.2%): 1 min
- Inhibition rate (M ± SD) of Escherichia coli CDC F-50 growth [3, 5]: 99.92 ± 0.005%
- Inhibition rate (M ± SD) of Escherichia coli CDC F-50 growth [3, 6]: 99.92 ± 0.005%
- Inhibition rate (M ± SD) of Escherichia coli CDC F-50 growth [3, 7]: 99.96 ± 0.005%
- Inhibition rate (M ± SD) of Escherichia coli CDC F-50 growth [3, 8]: 99.97 ± 0.005%
- Inhibition rate (M ± SD) of Escherichia coli CDC F-50 growth [3, 9]: 99.99 ± 0.005%
- Inhibition rate (M ± SD) of Escherichia coli CDC F-50 growth [3, 10]: 99.99 ± 0.00%
- Inhibition rate (M ± SD) of Escherichia coli CDC F-50 growth [3, 11]: 99.94 ± 0.00%
- Inhibition rate (M ± SD) of Escherichia coli CDC F-50 growth [3, 12]: 99.98 ± 0.005%
- Inhibition rate (M ± SD) of Escherichia coli CDC F-50 growth [3, 13]: 99.99 ± 0.005%
- Inhibition rate (M ± SD) of Escherichia coli CDC F-50 growth [3, 14]: 99.99 ± 0.005%
- Inhibition rate (M ± SD) of Escherichia coli CDC F-50 growth [3, 15]: 100 ± 0.005%
- Inhibition rate (M ± SD) of Escherichia coli CDC F-50 growth [3, 16]: 100%
- time after application to effective inhibition of bacterial growth [3]: 15 min

Compound: alkyldimethyl(phenylmethyl) ammonium chloride [Benzalconium chloride]
- Number of colonies grown in a Petri dish [1]: 1
- Inhibition rate (Mean ± SD) of Staphylococcus aureus ATCC 209p growth ([2]; exposure 1 min, +BSA): 99.99 ± 0.005%
- Inhibition rate (Mean ± SD) of Staphylococcus aureus ATCC 209p growth ([2]; exposure 1 min, −BSA): 99.99%
- Inhibition rate (Mean ± SD) of Staphylococcus aureus ATCC 209p growth ([2]; exposure 5 min, +BSA): 99.99%
- Inhibition rate (Mean ± SD) of Staphylococcus aureus ATCC 209p growth ([2]; exposure 5 min, −BSA): 99.99%
- Inhibition rate (Mean ± SD) of Staphylococcus aureus ATCC 209p growth ([2]; exposure 15 min, +BSA): 99.99%
- Inhibition rate (Mean ± SD) of Staphylococcus aureus ATCC 209p growth ([2]; exposure 15 min, −BSA): 99.99 ± 0.005%
- Inhibition rate (M ± SD) Staphylococcus aureus ATCC 209p ([2]; exposure 1 min, +BSA): 99.99%
- Inhibition rate (M ± SD) Staphylococcus aureus ATCC 209p ([2]; exposure 1 min, −BSA): 99.99%
- Inhibition rate (M ± SD) Staphylococcus aureus ATCC 209p ([2]; exposure 5 min, +BSA): 99.99%
- Inhibition rate (M ± SD) Staphylococcus aureus ATCC 209p ([2]; exposure 5 min, −BSA): 99.99%
- Inhibition rate (M ± SD) Staphylococcus aureus ATCC 209p ([2]; exposure 15 min, +BSA): 99.99 ± 0.005%
- Inhibition rate (M ± SD) Staphylococcus aureus ATCC 209p ([2]; exposure 15 min, −BSA): 100%
- time after application to effective inhibition of bacterial growth (99.99%) [2, 4]: 5 min
- Inhibition rate (M ± SD) of Escherichia coli CDC F-50 growth [3, 5]: 99.97 ± 0.005%
- Inhibition rate (M ± SD) of Escherichia coli CDC F-50 growth [3, 6]: 99.96 ± 0.005%
- Inhibition rate (M ± SD) of Escherichia coli CDC F-50 growth [3, 7]: 99.97 ± 0.005%
- Inhibition rate (M ± SD) of Escherichia coli CDC F-50 growth [3, 8]: 99.98 ± 0.005%
- Inhibition rate (M ± SD) of Escherichia coli CDC F-50 growth [3, 9]: 99.99 ± 0.005%
- Inhibition rate (M ± SD) of Escherichia coli CDC F-50 growth [3, 10]: 100 ± 0.00%
- Inhibition rate (M ± SD) of Escherichia coli CDC F-50 growth [3, 11]: 99.97 ± 0.00%
- Inhibition rate (M ± SD) of Escherichia coli CDC F-50 growth [3, 12]: 99.99 ± 0.005%
- Inhibition rate (M ± SD) of Escherichia coli CDC F-50 growth [3, 13]: 99.99 ± 0.005%
- Inhibition rate (M ± SD) of Escherichia coli CDC F-50 growth [3, 14]: 100%
- Inhibition rate (M ± SD) of Escherichia coli CDC F-50 growth [3, 15]: 100 ± 0.00%
- Inhibition rate (M ± SD) of Escherichia coli CDC F-50 growth [3, 16]: 100%
- time after application to effective inhibition of bacterial growth [3]: 15 min
- time to effective inhibition of bacterial growth ([3]; Escherichia coli CDC F-50, concentration 0.2%, test without protein load): 1 min
